Converted amounts (≈) assume the structure as drawn.
Key:
A549 cells [1] = experiment: Cellular uptake of TPD-Rhein in the presence of transporter inhibitors; format: cell-based, human; settings: A549 cells preincubated 1 h with inhibitor 189 μM, then TPD-Rhein 18.9 μM 1 h; vs control without inhibitor
Procedure: The A549 cells were seeded in 6-well culture plates (5 × 10^5 cells/well). On the second day, cells were incubated with Rhein or TPD-Rhein solution at increasing concentrations (4.7, 9.3, 18.9 and 37.4 μM, respectively, equivalent to Rhein) at 37 °C for 1 h. Cells were rinsed three times with ice-cold PBS and collected for the determination of intracellular concentration. To explore the cell delivery mechanism of TPD, the cells were precubated with indicated inhibitors for 1 h and then incubated with TPD-Rhein (18.9 μM) for another 1 h. For energy depletion, cells were exposed to Rhein or TPD-Rhein (18.9 μM) for 0.5 h at 37 °C, 4 °C, or in the presence of NaN3 (1 mg/mL) for 1 h. Lysine and L-arginine were substrates of basic amino acid transporters (Zhou et al., [2016]). Pyrilamine was used to indicate pyrilamine-sensitive transporter (Okura et al., [2008]). Spermine and Spermidine were inhibitors of the alkaline polyamine transporter (Grancara et al., [2014]). […] Choline was a substrate of choline transport system (Taguchi et al., [2014]). TPD was performed as a competitive cationic inhibitor. The inhibitor concentrations were 10-fold (189 μM) of the concentration of TPD-Rhein. In the end, cells were rinsed three times with ice-cold PBS and the intracellular concentrations of Rhein or TPD-Rhein were measured by LC-MS/MS. Cellular uptake was expressed as the amount (nmol/L) of Rhein or TPD-Rhein per 1 mg of total cellular protein. The total protein concentration of cell lysates was measured using the BCA protein assay kit (Pierce, Appleton, WI).

[2] = Plasma pharmacokinetics after i.v. injection; format: in vivo; settings: rat, iv, rats, 10 mg/kg Rhein equivalent
Procedure: Rhein or TPD-Rhein was injected through the tail vein of rats. For each preparation and sampling time point, five rats were treated with a single dose of Rhein at the dose of 10 mg/kg or TPD-Rhein at 17.2 mg/kg (dose equivalent to 10 mg/kg Rhein), respectively. The rats were scarified at predetermined time intervals (0.083, 0.25, 0.5, 1, 2, 4, 8, 16, and 24 h) after administration. The whole blood was quickly collected into heparinized tubes and centrifuged at 5000 rpm for 5 min to obtain plasma. Then, the tissues (heart, liver, spleen, lung, kidney, and brain) were rinsed with saline, weighed and homogenized with cold physiological saline (twice the weight of tissues). For Rhein treated rats, the content of Rhein in the homogenates was measured by LC-MS/MS. For TPD-Rhein treated rats, the samples were injected to LC-MS/MS to determine the concentration of free Rhein released and TPD-Rhein, respectively. The content of TPD-Rhein in tested tissues at different time point was the sum of TPD-Rhein and free Rhein released. The biodistribution of the two drugs in each organ was normalized by the weight of the selected tissue.
The pharmacokinetic data were calculated using the DAS software version 2.0 (Mathematical Pharmacology Professional Committee of China, Shanghai, China). The relative uptake efficiency (Re) and concentration efficiency (Ce) were used to evaluate the lung-targeting properties of TPD-Rhein. The values of Re and Ce were calculated as follows: Relung=(AUC0-t, lung)TPD-Rhein/(AUC0-t, lung)Rhein Celung=(Cmax, lung)TPD-Rhein/(Cmax, lung)Rhein

L929 cells = experiment: Cell uptake in L929 cells; format: cell-based, mouse
Text: (§1) Male Wistar rats (body weight: 200 ± 20 g) were supplied by the Experimental Animal Center of Zhengzhou University (Zhengzhou, China). Rats were maintained in a germ-free environment and allowed free access to food and water for at least one week before experiments. All animal experiments were approved by the Institutional Animal Care and Ethics Committee of Zhengzhou University, according to the requirements of the National Act on the use of experimental animals (PR China). A549 cells (human pulmonary alveolar epithelial cells), L929 cells (mouse fibroblast cells), and Hela cells (human carcinoma cervical cells) were obtained from ATCC (Manassas, VA). The cells were cultured in DMEM with high glucose (GIBCO, Big Cabin, OK) supplemented with 20% fetal bovine serum and 1% penicillin/streptomycin. Routinely, cells were maintained at 37 °C in a humidified atmosphere containing 5% CO2, and the cell medium was changed every other day. The A549 cells were seeded in 6-well culture plates (5 × 10^5 cells/well). […] In the end, cells were rinsed three times with ice-cold PBS and the intracellular concentrations of Rhein or TPD-Rhein were measured by LC-MS/MS. Cellular uptake was expressed as the amount (nmol/L) of Rhein or TPD-Rhein per 1 mg of total cellular protein. The total protein concentration of cell lysates was measured using the BCA protein assay kit (Pierce, Appleton, WI).

[3] = Aqueous solubility in PBS; format: physicochemical; settings: 25 °C, thermodynamic from solid
Procedure: The solubilities of Rhein and TPD-Rhein were determined in PBS with varying pH values (pH = 2 and 7.4) by equilibrating an excess of solid compound in 5 mL of buffer at 25 °C for 12 h. The samples were filtered through a 0.22 µm Millipore filter, diluted in methanol, and analyzed by LC-MS/MS. The chemical and enzymatic stabilities of TPD-Rhein were assessed in PBS with varying pH values (pH = 2, 4.5, 6.8, and 7.4), freshly prepared rat plasma and lung homogenates (diluted with 0.9% physiological saline) from rats at 37 °C, respectively. At predetermined time intervals, samples were immediately diluted by an equal amount of methanol to precipitate protein, vortexed for 5 min and centrifuged at 13,000 rpm for 10 min. The supernatant was then subjected to LC-MS/MS. Stability studies were performed in triplicate.

A549 cells [4] = experiment: Cell uptake study in A549 cells (LC-MS/MS); format: cell-based, human; settings: 18.9 μM, NaN3 1 mg/mL
Procedure: The A549 cells were seeded in 6-well culture plates (5 × 10^5 cells/well). On the second day, cells were incubated with Rhein or TPD-Rhein solution at increasing concentrations (4.7, 9.3, 18.9 and 37.4 μM, respectively, equivalent to Rhein) at 37 °C for 1 h. Cells were rinsed three times with ice-cold PBS and collected for the determination of intracellular concentration. To explore the cell delivery mechanism of TPD, the cells were precubated with indicated inhibitors for 1 h and then incubated with TPD-Rhein (18.9 μM) for another 1 h. For energy depletion, cells were exposed to Rhein or TPD-Rhein (18.9 μM) for 0.5 h at 37 °C, 4 °C, or in the presence of NaN3 (1 mg/mL) for 1 h. Lysine and L-arginine were substrates of basic amino acid transporters (Zhou et al., [2016]). Pyrilamine was used to indicate pyrilamine-sensitive transporter (Okura et al., [2008]). Spermine and Spermidine were inhibitors of the alkaline polyamine transporter (Grancara et al., [2014]). […] In the end, cells were rinsed three times with ice-cold PBS and the intracellular concentrations of Rhein or TPD-Rhein were measured by LC-MS/MS. Cellular uptake was expressed as the amount (nmol/L) of Rhein or TPD-Rhein per 1 mg of total cellular protein. The total protein concentration of cell lysates was measured using the BCA protein assay kit (Pierce, Appleton, WI).

Hela cells = experiment: Cell uptake in Hela cells; format: cell-based, human
Text: as §1

[5] = tested on: OVA-induced asthma model in rats; experiment: Therapeutic effect on ovalbumin-induced asthma model; format: in vivo, rat; settings: OVA-challenged asthmatic rats, i.v. Rhein 4.5 mg/kg/day or TPD-Rhein 7.7 mg/kg/day
Procedure: Wistar rats were used to evaluate the efficacy of Rhein and TPD-Rhein on asthma. Forty healthy male rats (200 ± 20 g) were randomly divided into four groups (n = 10). Asthma model in rats was established according to a previously reported method with slight modifications (Lu et al., [2015]). Briefly, on day 0, rats were systemically sensitized with an intraperitoneal injection with 1 mL of 10% ovalbumin (OVA). Two weeks after the sensitization, the rats were exposed to aerosolized OVA for 30 min of cycling three times per week for 14 weeks. The concentration of OVA was increased from 2% for 8 weeks to 4% for remaining 6 weeks to maintain the asthma condition. From weeks 3–16, the OVA-sensitized rats in the treatment groups were given normal saline, Rhein, or TPD-Rhein intravenously before OVA inhalation, at doses of 4.5 mg/kg/day for Rhein and 7.7 mg/kg/day for TPD-Rhein (dose equivalent to free drug treatment), respectively. The rats in the normal group received with the same volume of normal saline instead. One day after the last ultrasonic atomization, all rats were anesthetized by 3% sodium pentobarbital solution at a dose of 45 mg/kg. Then, 0.5 mL of intracardiac blood of each rat was collected. The histamine level and Interleukin-5 (IL-5) level in the supernatant serum were determined using Rat HIS ELISA kit (R&D Company, Minneapolis, MN) and Rat IL-5 ELISA Kit (R&D Company, Minneapolis, MN) according to the manufacturer’s instructions, respectively. Lungs were removed from sacrificed rats and lavaged to determine the IL-5 level using the corresponding kit. In the end, lungs were fixed in 4% buffered formalin, paraffin embedded and sectioned for hematoxylin and eosin staining (H&E) for conventional histological analysis.

[6] = In vitro cytotoxicity, MTT assay; format: cell-based; settings: human, A549 cells, under tested concentrations, read-out: A549 cells remaining viable
Procedure: To evaluate the in vitro cytotoxicity of Rhein and TPD-Rhein, MTT (3-(4, 5-dimethylthiazol-2-yl)-2, 5-diphenyltetrazolium bromide) assays were performed using A549 cell lines. Briefly, A549 cells were seeded in 96-well culture plates at a density of 1 × 10^4 cells/well and incubated at 37 °C for two days. On the day of administration, the cells were treated with different concentrations of Rhein solution, TPD-Rhein solution or TPD solution (dispersed in serum-free culture medium) for 4 h. An aliquot of 20 μL MTT solution (5 mg/mL) were added into each well and incubated at 37 °C for another 4 h. After that, all medium was removed and cells were rinsed with phosphate-buffered saline (PBS), and the formed dark blue formazan crystals in each well were dissolved in 150 μL DMSO. The absorbance of each individual well was read on a microplate reader (Thermo Scientific, Waltham, MA, Varioskan Flash) at 570 nm wavelength. Cells not exposed to samples were used as control (=100% viability).

With N=C(N)NCCC[C@H](N)C(=O)O [L-arginine] the “effect of inhibitor on cellular uptake of TPD-Rhein” value (“effect of inhibitor” below) (A549 cells [1]) was “no obvious impact”.

With C[N+](C)(C)C[C@H](O)CC(=O)[O-] [L-carnitine] the “effect of inhibitor” value (A549 cells [1]) was “no obvious impact”.

With NCCCC[C@H](N)C(=O)O [L-lysine] the “effect of inhibitor” value (A549 cells [1]) was “no obvious impact”.

Work on O=C(O)c1cc(O)c2c(c1)C(=O)c1cccc(O)c1C2=O [Rhein, 4,5-dihydroxyanthraquinone-2-carboxylic acid] yielded an AUC(0-t) [2] of 206 ± 10.6 µM·h, a Cmax [2] of 308 ± 3.89 µM and a clearance ([2]; read-out: CLZ (converted)) of 2.83 mL/min/kg. For the same compound, the Vd ([2]; read-out: VZ) was 0.47 ± 0.02 L/kg, the “uptake compared with A549 cells” value (L929 cells) was “slight decrease” and the solubility at 12 h ([3]; pH 2, aqueous buffer, PBS pH 2.0, 25 °C) was 3.56 ± 0.2 µg/mL (≈ 12.5 µM). For the same compound, the solubility at 12 h ([3]; pH 7.4, aqueous buffer, PBS pH 7.4, 25 °C) was 513 ± 32 µg/mL (≈ 1800 µM), the “intracellular amount at 4 °C or in the presence of NaN3 versus 37 °C” value (A549 cells [4]) was “no substantial difference” and the “uptake compared with A549 cells” value (Hela cells) was “slight decrease”. The “bronchoalveolar lavage fluid IL-5 level” value ([5]; vs asthmatic model group) was “no significant differences”, the “plasma (serum) IL-5 level” value ([5]; vs asthmatic model group) was “no significant differences” and the “lung histology (H&E)” value ([5]; vs asthmatic model rats) was “no significant improved anti-asthma efficacy”.

For CN(C)CCCN(C)Cc1ccc(O)cc1 [TPD, N,N,N’-trimethyl-N’-(4-hydroxyl-benzyl)-1,3-propanediamine], the viability at 4 h [6] was > 90% and the “effect of inhibitor” value (A549 cells [1]) was “abolish”.

In the case of CC[N+](CC)(CC)CC.[Cl-] [Tetraethylammonium (TEA) chloride], the “effect of inhibitor” value (A549 cells [1]) is reported as “significantly reduced”.

For C[N+](C)(C)CCO [choline], the “effect of inhibitor” value (A549 cells [1]) was “no obvious impact”.

In the case of CN(C)CCCN1c2ccccc2CCc2ccccc21 [imipramine], the “effect of inhibitor” value (A549 cells [1]) is reported as “significantly reduced”.

In the case of COc1ccc(CN(CCN(C)C)c2ccccn2)cc1 [pyrilamine], the “effect of inhibitor” value (A549 cells [1]) is reported as “no obvious impact”.

For NCCCCNCCCN [spermidine], the “effect of inhibitor” value (A549 cells [1]) was “no obvious impact”.

For NCCCNCCCCNCCCN [spermine], the “effect of inhibitor” value (A549 cells [1]) was “no obvious impact”.

Source: paper PMC6058525, “A novel phenolic propanediamine moiety-based lung-targeting therapy for asthma” (Drug Delivery, 2018)
